Data on six compounds can be found in patent US12510479B2, “Systems, devices, and methods for compound screening using predictive tagging” (ALLEN INSTITUTE, priority 2020, dated 2025).

Holding throughout (format): cell-based, human
Assay [1] has as its system AICS-61 (Histone). As to the kind of experiment: Predicted, label free imaging of drug effects (FIG. 10B, 10G). To be noted: AICS-61 cells; predicted label free images. The text has this: (§1) FIGS. 10A-10H show the predicted, label free imaging effects of different drugs on different, differentiated, hiPSC cell lines. […] Brefeldin inhibits protein transport from the endoplasmic reticulum to the golgi complex indirectly by preventing association of COP-I coat to the Golgi membrane.

The subject of assay [2] is AICS-44 (Golgi). Nature of the assay: Predicted, label free imaging of drug effects (FIG. 10C, 10E). Particulars: AICS-44 cells; predicted label free images.
Text: as §1

Assay [3] has as its system Cell Line ID: AICS-0012 c1.105, Alpha tubulin mEGFP-tagged. As to the kind of experiment: Fluorescence imaging of Alpha tubulin mEGFP-tagged hiPSCs (FIG. 9E-9F). To be noted: 5 μM, 2 hours, vs DMSO control. The text has this: (§2) Predicted imaging was also used with H2B (DNA) on Cell Line ID: AICS-0012 c1.105, Alpha tubulin mEGFP-tagged, to confirm the phenotype by two structures from the same cells.

Assay [4] has as its system hiPSC. As to the kind of experiment: Effect on microtubules and DNA during mitosis (FIG. 7). An excerpt:
Microtubules, DNA, and Cell membrane are each labeled.

For assay [5], the system named is hiPSC Cell Line ID: AICS-0061 c1.36 Histone H2B type 1-J mEGFP-tagged. As to the kind of experiment: Fluorescence imaging of Histone H2B mEGFP-tagged hiPSCs (FIG. 8E-8F). Particulars: 5 μM, 2 hours; mEGFP DNA tag; vs DMSO control. The text has this:
(§3) The fluorescent signal from the hiPSC Cell Line ID: AICS-0061 c1.36 Histone H2B type 1-J mEGFP-tagged (DNA tag) was used to train and validate the label free prediction model.

Assay [6] has as its system Cell Line ID: AICS-0012 c1.105, Alpha tubulin mEGFP-tagged. Nature of the assay: Label free prediction of condensed DNA from brightfield images (FIG. 9C-9D). Particulars: 5 μM, 2 hours, vs DMSO control.
Text: as §2
FIGS. 9C and 9D show the predicted images, based on the label free prediction model, obtained by imaging the nucleus of the cells with brightfield microscopy, and predicting the location and amount of condensed DNA, based on the trained model.

Assay [7] concerns EGFP-tagged cell lines AICS-23, AICS-44, AICS-61, AICS-24 and AICS-16. As to the kind of experiment: Drug perturbation signature using label free prediction of DNA (FIG. 11A-11C). To be noted: population statistics after DNA segmentation of label free prediction. How it is done: FIG. 11A-11C show the drug perturbation signature using label free prediction, as described herein.
These signatures were distinct from those of other drug perturbations such as BIX, Brefeldin, H89, and Monensin. The identification of these perturbation signatures were performed in the following EGFP-tagged cell lines; AICS-23 (tight junction), AICS-44 (Golgi), AICS-61 (Histone), AICS-24 (non-muscle Myosin) and AICS-16 (beta Actin) without additional introduction of DNA signals.

Assay [8] has as its system hiPSC Cell Line ID: AICS-0061 c1.36 Histone H2B type 1-J mEGFP-tagged. Nature of the assay: Label free prediction of condensed DNA from brightfield images (FIG. 8C-8D). Particulars: 5 μM, 2 hours, vs DMSO control.
Text: as §3
FIGS. 8C and 8D show the predicted images, based on the label free prediction model, obtained by imaging the nucleus of the cells with brightfield microscopy, and predicting the location and amount of condensed DNA, based on the trained model.

In assay [9] the test system is AICS-16 (beta Actin). Nature of the assay: Predicted, label free imaging of drug effects (FIG. 10F, 10H). Particulars: AICS-16 cells; predicted label free images.
Text: as §1

In assay [10] the test system is AICS-24 (non-muscle Myosin). Nature of the assay: Predicted, label free imaging of drug effects (FIG. 10D). Particulars: AICS-24 cells; predicted label free images.
Text: as §1

“Also recorded” adds a separate entry of the source.

On to `O=S(=O)(NCCNC/C=C/c1ccc(Br)cc1)c1cccc2cnccc12` [H89], for which the “predicted effect on DNA, nuclear size, or microtubule formation” value (from here on “predicted effect on DNA, nuclear size”) in assay [1] is listed as “no predicted effect on DNA, nuclear size, or microtubule formation”.

In the case of `C[C@H]1CCC/C=C/[C@@H]2C[C@H](O)C[C@H]2[C@H](O)/C=C/C(=O)O1` [Brefeldin], in [2], the “predicted effect on DNA, nuclear size” value was “no predicted effect on DNA, nuclear size, or microtubule formation”.

In the case of `CC(=O)O[C@H]1C(=O)[C@@]2(C)[C@H]([C@H](OC(=O)c3ccccc3)[C@]3(O)C[C@H](OC(=O)[C@H](O)[C@@H](NC(=O)c4ccccc4)c4ccccc4)C(C)=C1C3(C)C)[C@]1(OC(C)=O)CO[C@@H]1C[C@@H]2O` [Paclitaxel], in [3], the “microtubule formation, fluorescence image” value is “increase in microtubule formation”. In assay [1], the “predicted effect on DNA, nuclear size” value is recorded as “condensed DNA (condensed microtubules)”. Also, in assay [4], the microtubule bundle thickness result is recorded as “increases microtubule bundle thickness”. For the same compound, the “effect on hiPSC division” value in assay [4] (mitosis) was “arrest of cells in metaphase”. Further, the microtubule density entry in assay [4] (mitosis, FIG. 7) was “increase in microtubule density”. Also, the “condensed DNA, fluorescence image” value in assay [5] is “increase in condensed DNA”. In addition, the “amount of condensed DNA in predicted images” value in assay [6] is on record as “higher than the control cells”. In assay [7], the “condensed DNA frequency (perturbation signature in predicted images)” value was “increase in frequency of DNA condensation frequency; also recorded: increased condensed DNA Frequency”, the “nuclear density (perturbation signature in predicted images)” value was “higher nuclear density” and the “nuclear volume (perturbation signature in predicted images)” value is given as “larger nuclear volume”. The “amount of condensed DNA in predicted images” value in assay [8] was “higher than the control cells”.

Consider `C/C=C(/C)C(=O)O[C@H]1C(C)=C2[C@H]([C@@H]1OC(=O)CCCCCCC)[C@@](C)(OC(C)=O)C[C@H](OC(=O)CCC)[C@@]1(O)[C@H]2OC(=O)[C@@]1(C)O` [Thapsigargin], for which the “predicted effect on DNA, nuclear size” value in [9] is recorded as “no predicted effect on DNA, nuclear size, or microtubule formation”.

For `COc1cc2nc(N3CCCN(C)CC3)nc(NC3CCN(Cc4ccccc4)CC3)c2cc1OC` [BIX-01294], the “predicted effect on DNA, nuclear size” value in [2] is on record as “no predicted effect on DNA, nuclear size, or microtubule formation”.

With `CC[C@@]1([C@@H]2O[C@@H]([C@H]3O[C@@](O)(CO)[C@H](C)C[C@@H]3C)C[C@@H]2C)CC[C@H]([C@]2(C)CC[C@]3(C[C@H](O)[C@@H](C)[C@@H]([C@@H](C)[C@@H](OC)[C@H](C)C(=O)O)O3)O2)O1` [Monensin], in assay [10], the “predicted effect on DNA, nuclear size” value is “no predicted effect on DNA, nuclear size, or microtubule formation”.
